Experimental data as given in US20260125378A2, “Heterocyclic Compounds” (BeOne Medicines I GmbH, priority 2023, published 2026).
pIC50: −log10 of the molar value.

Tests used:
[1] = molecular target: T1, Full length DGKα (D21-10BG, SignalChem) (Homo sapiens, UniProt P23743); assay: Biochemical DGK IC50 assay (ADP-Glo, lipid micelle substrate), DGKα; details: 1 hour preincubation, 1 hour reaction, room temperature
T1 construct: Full length DGKα (D21-10BG, SignalChem); purchased SignalChem D21-10BG
Outline: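 Full-length human DGKα with DAG/PS lipid micelle substrate (in octyl glucoside buffer), reacted 1 h at room temperature in 50 mM HEPES, 10 mM MgCl2, 0.01 mM CaCl2, 0.1 mM Na3VO4, 0.01% BSA, 0.005% Tween-20. ADP formed read by ADP-Glo luminescence; IC50 from inhibition across increasing compound concentrations.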

[2] = molecular target: T2, Full length DGKζ (in-house protein M1-V929) (Homo sapiens, UniProt Q13574); assay: Biochemical DGK IC50 assay (ADP-Glo, lipid micelle substrate), DGKζ; details: 1 hour preincubation, 1 hour reaction, room temperature
T2 construct: His (N); TEV site (N); made in house; host or cells: Sf9 insect cells (Bac-to-Bac baculovirus)
Outline: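 Full-length human DGKζ (M1-V929, His-TEV tagged, Sf9 baculovirus-expressed) with DAG/PS lipid micelle substrate in octyl glucoside, at room temperature in 50 mM HEPES, 10 mM MgCl2, 0.01 mM CaCl2 buffer.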

T1 sequence (P23743 whole entry): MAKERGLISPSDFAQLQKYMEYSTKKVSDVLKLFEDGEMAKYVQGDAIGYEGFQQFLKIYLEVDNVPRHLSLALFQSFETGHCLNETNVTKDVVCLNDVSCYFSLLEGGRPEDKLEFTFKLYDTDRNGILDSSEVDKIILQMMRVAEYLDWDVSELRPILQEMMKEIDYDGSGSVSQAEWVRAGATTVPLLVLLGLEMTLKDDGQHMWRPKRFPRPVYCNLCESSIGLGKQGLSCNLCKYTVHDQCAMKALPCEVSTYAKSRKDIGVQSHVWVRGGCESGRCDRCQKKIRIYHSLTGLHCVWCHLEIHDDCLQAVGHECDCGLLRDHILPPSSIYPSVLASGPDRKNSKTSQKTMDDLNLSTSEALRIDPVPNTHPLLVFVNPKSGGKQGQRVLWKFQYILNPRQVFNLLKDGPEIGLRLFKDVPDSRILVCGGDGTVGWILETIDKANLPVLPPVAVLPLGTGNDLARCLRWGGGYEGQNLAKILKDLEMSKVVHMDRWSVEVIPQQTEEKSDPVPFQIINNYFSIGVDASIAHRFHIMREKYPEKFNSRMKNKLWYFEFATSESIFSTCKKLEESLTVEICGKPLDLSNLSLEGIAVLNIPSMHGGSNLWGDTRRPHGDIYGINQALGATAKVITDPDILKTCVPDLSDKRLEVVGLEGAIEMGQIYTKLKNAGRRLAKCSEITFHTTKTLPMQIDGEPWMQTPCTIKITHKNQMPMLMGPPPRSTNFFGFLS
T2 sequence (Q13574 1-929 isoform Q13574-4): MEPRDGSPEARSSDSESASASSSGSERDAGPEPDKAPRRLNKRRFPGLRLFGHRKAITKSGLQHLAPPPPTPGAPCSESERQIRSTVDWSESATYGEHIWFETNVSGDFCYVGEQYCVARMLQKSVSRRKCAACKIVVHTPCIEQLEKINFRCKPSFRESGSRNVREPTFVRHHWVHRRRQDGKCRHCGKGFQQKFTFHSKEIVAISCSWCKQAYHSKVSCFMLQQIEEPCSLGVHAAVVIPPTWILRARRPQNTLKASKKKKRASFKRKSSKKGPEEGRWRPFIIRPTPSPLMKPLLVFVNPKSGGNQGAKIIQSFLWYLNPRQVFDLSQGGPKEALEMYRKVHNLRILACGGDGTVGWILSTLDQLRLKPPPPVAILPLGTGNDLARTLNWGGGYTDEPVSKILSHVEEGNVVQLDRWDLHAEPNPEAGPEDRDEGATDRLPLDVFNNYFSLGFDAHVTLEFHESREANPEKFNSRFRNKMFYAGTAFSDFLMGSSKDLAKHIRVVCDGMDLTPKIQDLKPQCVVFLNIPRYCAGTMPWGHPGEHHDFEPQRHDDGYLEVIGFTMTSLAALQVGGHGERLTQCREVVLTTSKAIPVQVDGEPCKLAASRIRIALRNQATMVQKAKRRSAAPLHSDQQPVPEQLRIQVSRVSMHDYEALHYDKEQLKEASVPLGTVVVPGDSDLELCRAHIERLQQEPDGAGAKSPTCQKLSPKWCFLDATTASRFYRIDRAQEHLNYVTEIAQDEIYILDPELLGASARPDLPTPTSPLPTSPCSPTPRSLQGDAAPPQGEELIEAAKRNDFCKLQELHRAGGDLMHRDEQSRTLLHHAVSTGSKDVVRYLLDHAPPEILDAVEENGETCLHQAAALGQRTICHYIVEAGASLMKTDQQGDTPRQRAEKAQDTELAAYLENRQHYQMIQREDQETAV

pIC50 [1]	pIC50 [2]	SMILES
5.16	9.00	CC[C@@H]1CN(c2nc(=O)n(CC)c3c2nc(CC#N)n3C)[C@@H](C)CN1C(C)c1ccc2c(c1)OC(C)(C)CO2 (single isomer, unassigned) [Compound A66b]
< 5.00	5.07	CC(c1ccc(F)cc1C(F)(F)F)N1C[C@H](C)N(c2cc(=O)n(C)c3[nH]c(CC#N)nc23)C[C@H]1C (single isomer, unassigned) [Compound A9a]
< 3.82	6.38	CCn1c(CC#N)nc2c(N3C[C@@H](C)N(C(C)c4cnc5c(c4)OC(C)(C)CO5)C[C@@H]3C)nc(=O)n(C)c21 (stereo partly drawn) [Compound A76, 2-(6-((2S,5R)-4-(1-(2,2-dimethyl-2,3-dihydro-[1,4]dioxino[2,3-b]pyridin-7-yl)ethyl)-2,5-dimethylpiperazin-1-yl)-9-ethyl-3-methyl-2-oxo-3,9-dihydro-2H-purin-8-yl)acetonitrile]
< 3.82	7.34	CCn1c(CC#N)nc2c(N3C[C@@H](C)N(C(C)c4ccc5c(n4)OC(C)(C)CO5)C[C@@H]3C)nc(=O)n(C)c21 (single isomer, unassigned) [Compound A74a]
< 5.00	6.77	CC(c1ccc(F)cc1C(F)(F)F)N1C[C@H](C)N(c2cc(=O)n(C)c3[nH]c(CC#N)nc23)C[C@H]1C (single isomer, unassigned) [Compound A9b]
3.91	7.48	CC[C@@H]1CN(c2nc(=O)n(C)c3c2nc(CC#N)n3CC)[C@@H](C)CN1C(C)c1ccc2c(n1)OC(C)(C)CO2 (mixture of isomers) [Compound A158, 2-(6-((2S,5R)-4-(1-(3,3-dimethyl-2,3-dihydro-[1,4]dioxino[2,3-b]pyridin-6-yl)ethyl)-5-ethyl-2-methylpiperazin-1-yl)-9-ethyl-3-methyl-2-oxo-3,9-dihydro-2H-purin-8-yl)acetonitrile]
4.13	7.22	CCn1c(CC#N)nc2c(N3C[C@@H](C)N(C(C)c4ccnc(-c5ccccc5)c4)C[C@@H]3C)nc(=O)n(C)c21 (stereo partly drawn) [Compound A144, 2-(6-((2S,5R)-2,5-dimethyl-4-(1-(2-phenylpyridin-4-yl)ethyl)piperazin-1-yl)-9-ethyl-3-methyl-2-oxo-3,9-dihydro-2H-purin-8-yl)acetonitrile]
4.55	7.51	CCn1c(CC#N)nc2c(N3C[C@@H](C)N(C(C)c4ccc5c(c4)OC4(CCC4)O5)C[C@@H]3C)nc(=O)n(C)c21 (mixture of isomers) [Compound A169, 2-(6-((2S,5R)-2,5-dimethyl-4-(1-(spiro[benzo[d][1,3]dioxole-2,1′-cyclobutan]-5-yl)ethyl)piperazin-1-yl)-9-ethyl-3-methyl-2-oxo-3,9-dihydro-2H-purin-8-yl)acetonitrile]
4.00	7.10	CCn1c(CC#N)nc2c(N3C[C@@H](C)N(C(C)c4cccc(OC(C)C)c4)C[C@@H]3C)nc(=O)n(C)c21 (stereo partly drawn) [Compound A43, 2-(9-ethyl-6-((2S,5R)-4-(1-(3-isopropoxyphenyl)ethyl)-2,5-dimethylpiperazin-1-yl)-3-methyl-2-oxo-3,9-dihydro-2H-purin-8-yl)acetonitrile]
< 5.00	7.60	COC[C@H]1CN(C(C)c2ccc(F)cc2C(F)(F)F)[C@H](C)CN1c1nc(=O)n(C)c2c1nc(CC#N)n2C (stereo partly drawn) [Compound A10, 2-(6-((2R,5R)-4-(1-(4-fluoro-2-(trifluoromethyl)phenyl)ethyl)-2-(methoxymethyl)-5-methylpiperazin-1-yl)-3,9-dimethyl-2-oxo-3,9-dihydro-2H-purin-8-yl)acetonitrile]
4.83	6.28	CC(c1ccc2c(c1)OC(F)(F)C(F)(F)O2)N1C[C@H](C)N(c2nc(=O)n(C)c3c2nc(CC#N)n3C)C[C@H]1C (single isomer, unassigned) [Compound A79b]
< 3.82	5.11	CCn1c(CC#N)nc2c(N3C[C@@H](C)N(C(C)c4ccc(C)cc4C(F)(F)F)C[C@@H]3C)nc(=O)n(C)c21 (single isomer, unassigned) [Compound A116a]
< 3.82	7.47	CCn1c(CC#N)nc2c(N3C[C@@H](C)N(C(C)c4cc(F)c5c(c4)OC(C)(C)O5)C[C@@H]3C)c(F)c(=O)n(C)c21 (stereo partly drawn) [Compound A189, 2-(3-ethyl-6-fluoro-7-((2S,5R)-4-(1-(7-fluoro-2,2-dimethylbenzo[d][1,3]dioxol-5-yl)ethyl)-2,5-dimethylpiperazin-1-yl)-4-methyl-5-oxo-4,5-dihydro-3H-imidazo[4,5-b]pyridin-2-yl)acetonitrile]
3.95	7.66	CCn1c(CC#N)nc2c(N3C[C@@H](C)N(C(C)c4cccc(C(C)(C)C#N)c4)C[C@@H]3C)nc(=O)n(C)c21 (stereo partly drawn) [Compound A134, 2-(3-(1-((2R,5S)-4-(8-(cyanomethyl)-9-ethyl-3-methyl-2-oxo-3,9-dihydro-2H-purin-6-yl)-2,5-dimethylpiperazin-1-yl)ethyl)phenyl)-2-methylpropanenitrile]
3.88	7.38	COc1cc(F)ccc1C(C)N1C[C@H](C)N(c2nc(=O)n(C)c3c2nc(CC#N)n3C)C[C@H]1C (single isomer, unassigned) [Compound A24b]
< 3.82	< 5.00	CCn1c(CC#N)nc2c(N3C[C@@H](C)N(C(C)c4ccn(C)c(=O)c4)C[C@@H]3C)nc(=O)n(C)c21 (stereo partly drawn) [Compound A107, 2-(6-((2S,5R)-2,5-dimethyl-4-(1-(1-methyl-2-oxo-1,2-dihydropyridin-4-yl)ethyl)piperazin-1-yl)-9-ethyl-3-methyl-2-oxo-3,9-dihydro-2H-purin-8-yl)acetonitrile]
4.94	7.55	CCn1c(CC#N)nc2c(N3C[C@@H](C)N(C(C)c4cc5c(cc4F)OCC(C)(C)O5)C[C@@H]3C)nc(=O)n(C)c21 (single isomer, unassigned) [Compound A157a]
3.97	6.26	CCc1nc2cc(C(C)N3C[C@H](C)N(c4nc(=O)n(C)c5c4nc(CC#N)n5CC)C[C@H]3C)ccc2s1 (single isomer, unassigned) [Compound A95b]
< 3.82	7.38	CCn1c(CC#N)nc2c(N3C[C@@H](C)N(C(C)c4cccc(C5CC5)c4)C[C@@H]3C)nc(=O)n(C)c21 (stereo partly drawn) [Compound A125, 2-(6-((2S,5R)-4-(1-(3-cyclopropylphenyl)ethyl)-2,5-dimethylpiperazin-1-yl)-9-ethyl-3-methyl-2-oxo-3,9-dihydro-2H-purin-8-yl)acetonitrile]
< 5.00	6.41	CC[C@H]1CN(C(C)c2ccc(F)cc2C(F)(F)F)[C@H](CC)CN1c1nc(=O)n(C)c2c1nc(CC#N)n2C (single isomer, unassigned) [Compound A34a]
4.72	7.05	CC(c1ccc2c(c1)OC(F)(F)O2)N1C[C@H](C)N(c2nc(=O)n(C)c3c2nc(CC#N)n3C)C[C@H]1C (stereo partly drawn) [Compound A167, 2-(6-((2S,5R)-4-(1-(2,2-difluorobenzo[d][1,3]dioxol-5-yl)ethyl)-2,5-dimethylpiperazin-1-yl)-3,9-dimethvl-2-oxo-3,9-dihydro-2H-purin-8-yl)acetonitrile]
3.83	5.90	CCn1c(CC#N)nc2c(N3C[C@@H](C)N(C(C)c4ccc5c(c4)OC(C)(C)O5)C[C@@H]3C)nc(=O)n(C)c21 (single isomer, unassigned) [Compound A85a]
< 3.82	6.48	CCn1c(CC#N)nc2c(N3C[C@@H](C)N(C(C)c4nc5c(cc4Cl)OCC(C)(C)O5)C[C@@H]3C)nc(=O)n(C)c21 (stereo partly drawn) [Compound A160, 2-(6-((2S,5R)-4-(1-(7-chloro-3,3-dimethyl-2,3-dihydro-[1,4]dioxino[2,3-b]pyridin-6-yl)ethyl)-2,5-dimethylpiperazin-1-yl)-9-ethyl-3-methyl-2-oxo-3,9-dihydro-2H-purin-8-yl)acetonitrile]
4.30	7.38	CCc1nc2cc(C(C)N3C[C@H](C)N(c4nc(=O)n(C)c5c4nc(CC#N)n5CC)C[C@H]3C)ccc2s1 (mixture of isomers) [Compound A95, 2-(9-ethyl-6-((2S,5R)-4-(1-(2-ethylbenzo[d]thiazol-5-yl)ethyl)-2,5-dimethylpiperazin-1-yl)-3-methyl-2-oxo-3,9-dihydro-2H-purin-8-yl)acetonitrile]
< 5.00	6.09	CC(c1ccc(F)cc1C(F)(F)F)N1C[C@H](C)N(c2nc(=O)n(C)c3c2nc(CC#N)n3C)C[C@H]1C (single isomer, unassigned) [Compound A33a]
< 5.00	8.52	CC(c1ccc(F)cc1C(F)(F)F)N1C[C@H](C)N(c2nc(=O)n(C)c3c2nc(CC#N)n3C)C[C@H]1C (single isomer, unassigned) [Compound A33b]
3.91	7.62	CCn1c(CC#N)nc2c(N3C[C@@H](C)N(C(C)c4cccc(C5(C)CC5)c4)C[C@@H]3C)nc(=O)n(C)c21 (stereo partly drawn) [Compound A126, 2-(6-((2S,5R)-2,5-dimethyl-4-(1-(3-(1-methylcyclopropyl)phenyl)ethyl)piperazin-1-yl)-9-ethyl-3-methyl-2-oxo-3,9-dihydro-2H-purin-8-yl)acetonitrile]
4.19	8.15	CCn1c(CC#N)nc2c(N3C[C@@H](C)N(C(C)c4cccc(C(C)C)c4)C[C@@H]3C)nc(=O)n(C)c21 (single isomer, unassigned) [Compound A108a]
4.02	6.09	CCn1c(CC#N)nc2c(N3C[C@@H](C)N(C(C)c4cccc(C(C)C)c4)C[C@@H]3C)nc(=O)n(C)c21 (single isomer, unassigned) [Compound A108b]
